Laboratory results published in ChEMBL document CHEMBL3864191 (ACS Med Chem Lett, 2016).
Active and inactive are the calls of the source. The calls are words filed in the database; no cut-off is given here.

Columns and labels:
NCI60 = test: Cytotoxicity against human NCI60 cells assessed as cell growth inhibition up to 10 uM after 48 hrs by SRB assay; type: functional, cell-based
[1] = Cytotoxicity against human DU145 cells assessed as reduction in cell viability after 72 hrs by MTT assay; type: functional, cell-based, DU-145; details: Homo sapiens, DU-145, 72 h
[2] = Cytotoxicity against mouse CT26 cells assessed as reduction in cell viability after 72 hrs by MTT assay; type: functional, cell-based; details: Mus musculus, CT26, 72 h
cells [3] = details: Homo sapiens, MCF7, 72 h
Description: Cytotoxicity against human MCF7 cells assessed as reduction in cell viability after 72 hrs by MTT assay

cells [4] = details: Homo sapiens, HCT-116, 72 h
Description: Cytotoxicity against human HCT116 cells assessed as reduction in cell viability after 72 hrs by MTT assay

[5] = target: Induced myeloid leukemia cell differentiation protein Mcl-1 (Homo sapiens, UniProt Q07820); test: Inhibition of FAM-Bid binding to human MCL1 expressed in Escherichia coli BL21 after 30 mins by fluorescence polarization assay
[6] = target: Apoptosis regulator Bcl-2 (Homo sapiens, UniProt P10415); test: Inhibition of FAM-Bid binding to human BCL2 expressed in Escherichia coli BL21 after 30 mins by fluorescence polarization assay
[7] = Cytotoxicity against HEK293T cells assessed as reduction in cell viability at 0.33 to 100 uM after 72 hrs by MTT assay; type: toxicity, cell-based; details: human, hek-293t
[8] = Cytotoxicity against African green monkey Vero cells assessed as reduction in cell viability at 0.33 to 100 uM after 72 hrs by MTT assay; type: toxicity, cell-based; details: chlorocebus sabaeus
[9] = Cytotoxicity against human leukemia cells assessed as cell growth inhibition after 48 hrs by SRB assay; type: functional
[10] = Cytotoxicity against human non-small cell lung cancer cells assessed as cell growth inhibition after 48 hrs by SRB assay; type: functional; details: Cancer cell lines
[11] = Cytotoxicity against human colon cancer cells assessed as cell growth inhibition after 48 hrs by SRB assay; type: functional; details: Cancer cell lines
[12] = Cytotoxicity against human CNS cancer cells assessed as cell growth inhibition after 48 hrs by SRB assay; type: functional; details: Cancer cell lines
[13] = Cytotoxicity against human melanoma cells assessed as cell growth inhibition after 48 hrs by SRB assay; type: functional
[14] = Cytotoxicity against human ovarian cancer cells assessed as cell growth inhibition after 48 hrs by SRB assay; type: functional; details: Cancer cell lines
[15] = Cytotoxicity against human renal cancer cells assessed as cell growth inhibition after 48 hrs by SRB assay; type: functional; details: Cancer cell lines
[16] = Cytotoxicity against human prostate cancer cells assessed as cell growth inhibition after 48 hrs by SRB assay; type: functional; details: Cancer cell lines
[17] = Cytotoxicity against human breast cancer cells assessed as cell growth inhibition after 48 hrs by SRB assay; type: functional; details: Cancer cell lines

Chain of Induced myeloid leukemia cell differentiation protein Mcl-1 (Q07820 whole entry): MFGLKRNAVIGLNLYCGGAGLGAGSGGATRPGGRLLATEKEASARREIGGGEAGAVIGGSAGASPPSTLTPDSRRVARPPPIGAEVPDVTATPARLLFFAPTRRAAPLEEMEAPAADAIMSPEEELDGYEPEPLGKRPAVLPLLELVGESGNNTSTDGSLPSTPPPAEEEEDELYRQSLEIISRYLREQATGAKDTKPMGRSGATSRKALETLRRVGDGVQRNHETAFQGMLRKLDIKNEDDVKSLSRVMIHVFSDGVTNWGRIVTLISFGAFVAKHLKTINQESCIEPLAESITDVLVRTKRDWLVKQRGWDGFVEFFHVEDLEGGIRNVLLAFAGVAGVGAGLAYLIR
Chain of Apoptosis regulator Bcl-2 (P10415 whole entry): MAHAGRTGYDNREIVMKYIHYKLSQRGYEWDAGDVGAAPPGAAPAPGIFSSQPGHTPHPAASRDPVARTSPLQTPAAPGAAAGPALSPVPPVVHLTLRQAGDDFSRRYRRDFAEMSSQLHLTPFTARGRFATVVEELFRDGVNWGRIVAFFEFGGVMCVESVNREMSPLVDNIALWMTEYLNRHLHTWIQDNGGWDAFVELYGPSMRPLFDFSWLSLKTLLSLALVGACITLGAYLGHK

Compound	growth inhibition (GI) (NCI60)	IC50 [1]	IC50 [2]	IC50 (cells [3])	IC50 (cells [4])	Activity [7]	Activity [8]	further results
COC(=O)CCCN/C=C1\C(=O)C(O)=C(C(C)C)c2cc(C)c(-c3c(C)cc4c(c3O)/C(=C/NCCCC(=O)OC)C(=O)C(O)=C4C(C)C)c(O)c21 (stereo in doubt; 16)	Active	–	–	–	–	–	–	–
Cc1cc2c(c(O)c1-c1c(C)cc3c(c1O)/C(=C/NCc1ccccc1)C(=O)C(O)=C3C(C)C)/C(=C/NCc1ccccc1)C(=O)C(O)=C2C(C)C	Active	21.9 µM	> 100 µM	> 100 µM	83.1 µM	–	–	–
Cc1cc2c(c(O)c1-c1c(C)cc3c(c1O)/C(=C/NCC(=O)O)C(=O)C(O)=C3C(C)C)/C(=C/NCC(=O)O)C(=O)C(O)=C2C(C)C	Active	34.8 µM	48.9 µM	14.4 µM	26.8 µM	Non-Toxic	Non-Toxic	IC50 [5]: 0.521 µM; Ki [5]: 0.121 µM; IC50 [6]: 0.573 µM; Ki [6]: 0.224 µM
Cc1cc2c(c(O)c1-c1c(C)cc3c(c1O)/C(=C/NCc1ccco1)C(=O)C(O)=C3C(C)C)/C(=C/NCc1ccco1)C(=O)C(O)=C2C(C)C	Active	15.5 µM	> 100 µM	> 100 µM	42.4 µM	–	–	–
Cc1cc2c(c(O)c1-c1c(C)cc3c(c1O)/C(=C/Nc1ccc(C(C)(C)C)cc1)C(=O)C(O)=C3C(C)C)/C(=C/Nc1ccc(C(C)(C)C)cc1)C(=O)C(O)=C2C(C)C	Active	> 100 µM	12.8 µM	> 100 µM	> 100 µM	–	–	–
Cc1cc2c(c(O)c1-c1c(C)cc3c(c1O)/C(=C/NC1CCCCC1)C(=O)C(O)=C3C(C)C)/C(=C/NC1CCCCC1)C(=O)C(O)=C2C(C)C	Active	20.7 µM	25.2 µM	> 100 µM	80.3 µM	–	–	–
COC(=O)CCCCCN/C=C1\C(=O)C(O)=C(C(C)C)c2cc(C)c(-c3c(C)cc4c(c3O)/C(=C/NCCCCCC(=O)OC)C(=O)C(O)=C4C(C)C)c(O)c21	Active	8.56 µM	13.8 µM	11.5 µM	0.64 µM	Non-Toxic	Non-Toxic	IC50 [5]: 1.02 µM; Ki [5]: 0.195 µM; IC50 [6]: 0.84 µM; Ki [6]: 0.348 µM; GI50 [9]: 1.03 µM; GI50 [10]: 1.51 µM; GI50 [11]: 1.44 µM; GI50 [12]: 1.46 µM; GI50 [13]: 2.35 µM; GI50 [14]: 2.65 µM; GI50 [15]: 2.08 µM; GI50 [16]: 1.41 µM; GI50 [17]: 1.72 µM
COC(=O)CN/C=C1\C(=O)C(O)=C(C(C)C)c2cc(C)c(-c3c(C)cc4c(c3O)/C(=C/NCC(=O)OC)C(=O)C(O)=C4C(C)C)c(O)c21	Active	–	–	–	–	Non-Toxic	Non-Toxic	IC50 [5]: 1.43 µM; Ki [5]: 0.276 µM; IC50 [6]: 0.103 µM; Ki [6]: 0.005 µM; GI50 [9]: 1.88 µM; GI50 [10]: 1.65 µM; GI50 [11]: 1.63 µM; GI50 [12]: 1.63 µM; GI50 [13]: 2.84 µM; GI50 [14]: 1.74 µM; GI50 [15]: 2.19 µM; GI50 [16]: 1.92 µM; GI50 [17]: 2.44 µM
Cc1cc2c(c(O)c1-c1c(C)cc3c(c1O)/C(=C/N[C@H]1C[C@@H]4C[C@H]([C@@H]1C)C4(C)C)C(=O)C(O)=C3C(C)C)/C(=C/N[C@H]1C[C@@H]3C[C@H]([C@@H]1C)C3(C)C)C(=O)C(O)=C2C(C)C	–	> 100 µM	> 100 µM	> 100 µM	> 100 µM	–	–	–
COC(=O)CCCN/C=C1\C(=O)C(O)=C(C(C)C)c2cc(C)c(-c3c(C)cc4c(c3O)/C(=C/NCCCC(=O)OC)C(=O)C(O)=C4C(C)C)c(O)c21 (stereo in doubt; (+)-16)	–	–	–	–	–	–	–	IC50 [5]: 1.25 µM; Ki [5]: 0.24 µM; IC50 [6]: 0.452 µM; Ki [6]: 0.167 µM
Cc1cc2c(c(O)c1-c1c(C)cc3c(c1O)/C(=C/NC(C)(C)C)C(=O)C(O)=C3C(C)C)/C(=C/NC(C)(C)C)C(=O)C(O)=C2C(C)C	Active	17.2 µM	12.8 µM	> 100 µM	> 100 µM	–	–	–
Cc1cc2c(c(O)c1-c1c(C)cc3c(c1O)/C(=C/NC1CCC(C(C)(C)C)CC1)C(=O)C(O)=C3C(C)C)/C(=C/NC1CCC(C(C)(C)C)CC1)C(=O)C(O)=C2C(C)C (stereo unspecified)	–	> 100 µM	21.7 µM	> 100 µM	> 100 µM	–	–	–
COC(=O)c1ccccc1N/C=C1\C(=O)C(O)=C(C(C)C)c2cc(C)c(-c3c(C)cc4c(c3O)/C(=C/Nc3ccccc3C(=O)OC)C(=O)C(O)=C4C(C)C)c(O)c21	–	20.9 µM	21.4 µM	24.7 µM	37.3 µM	–	–	–
Cc1cc2c(c(O)c1-c1c(C)cc3c(c1O)/C(=C/NCCCCC(=O)O)C(=O)C(O)=C3C(C)C)/C(=C/NCCCCC(=O)O)C(=O)C(O)=C2C(C)C	–	20.7 µM	4.46 µM	15.9 µM	22.2 µM	Non-Toxic	Non-Toxic	IC50 [5]: 0.478 µM; Ki [5]: 0.085 µM; IC50 [6]: 0.458 µM; Ki [6]: 0.171 µM
Cc1cc2c(c(O)c1-c1c(C)cc3c(c1O)/C(=C/NCCCS(=O)(=O)O)C(=O)C(O)=C3C(C)C)/C(=C/NCCCS(=O)(=O)O)C(=O)C(O)=C2C(C)C	–	36 µM	35.6 µM	17.7 µM	43.1 µM	–	–	–
COC(=O)[C@H](CCSC)N/C=C1\C(=O)C(O)=C(C(C)C)c2cc(C)c(-c3c(C)cc4c(c3O)/C(=C/N[C@@H](CCSC)C(=O)OC)C(=O)C(O)=C4C(C)C)c(O)c21	–	17.7 µM	> 100 µM	> 100 µM	0.52 µM	–	–	–
Cc1cc2c(c(O)c1-c1c(C)cc3c(c1O)/C(=C/NCCC(=O)O)C(=O)C(O)=C3C(C)C)/C(=C/NCCC(=O)O)C(=O)C(O)=C2C(C)C	–	21.6 µM	67.3 µM	19.4 µM	21 µM	Non-Toxic	Non-Toxic	–
Cc1cc2c(c(O)c1-c1c(C)cc3c(c1O)/C(=C/NC14CC5CC(CC(C5)C1)C4)C(=O)C(O)=C3C(C)C)/C(=C/NC13CC4CC(CC(C4)C1)C3)C(=O)C(O)=C2C(C)C	–	> 100 µM	> 100 µM	> 100 µM	> 100 µM	–	–	–
COC(=O)CCCN/C=C1\C(=O)C(O)=C(C(C)C)c2cc(C)c(-c3c(C)cc4c(c3O)/C(=C/NCCCC(=O)OC)C(=O)C(O)=C4C(C)C)c(O)c21 (stereo in doubt; (-)-16)	–	–	–	–	–	–	–	IC50 [5]: 0.937 µM; Ki [5]: 0.178 µM; IC50 [6]: 0.375 µM; Ki [6]: 0.131 µM
COC(=O)CCCCCCN/C=C1\C(=O)C(O)=C(C(C)C)c2cc(C)c(-c3c(C)cc4c(c3O)/C(=C/NCCCCCCC(=O)OC)C(=O)C(O)=C4C(C)C)c(O)c21	Active	11.4 µM	5.59 µM	8.95 µM	13.1 µM	Non-Toxic	Non-Toxic	–
COC(=O)[C@@H](N/C=C1\C(=O)C(O)=C(C(C)C)c2cc(C)c(-c3c(C)cc4c(c3O)/C(=C/N[C@H](C(=O)OC)C(C)C)C(=O)C(O)=C4C(C)C)c(O)c21)C(C)C	–	12.1 µM	5.85 µM	77.3 µM	77.1 µM	–	–	–
Cc1cc2c(c(O)c1-c1c(C)cc3c(c1O)/C(=C/NCCCCCC(=O)O)C(=O)C(O)=C3C(C)C)/C(=C/NCCCCCC(=O)O)C(=O)C(O)=C2C(C)C	–	27.5 µM	4.54 µM	17.7 µM	23.1 µM	Non-Toxic	Non-Toxic	–
Cc1cc2c(c(O)c1-c1c(C)cc3c(c1O)/C(=C/NCCS(=O)(=O)O)C(=O)C(O)=C3C(C)C)/C(=C/NCCS(=O)(=O)O)C(=O)C(O)=C2C(C)C	–	28.9 µM	3.19 µM	15.9 µM	48.9 µM	–	–	–
Cc1cc2c(c(O)c1-c1c(C)cc3c(c1O)/C(=C/NC(C)(C)C(C)(C)C)C(=O)C(O)=C3C(C)C)/C(=C/NC(C)(C)C(C)(C)C)C(=O)C(O)=C2C(C)C	Active	> 100 µM	5.4 µM	> 100 µM	> 100 µM	–	–	–
COC(=O)CCN/C=C1\C(=O)C(O)=C(C(C)C)c2cc(C)c(-c3c(C)cc4c(c3O)/C(=C/NCCC(=O)OC)C(=O)C(O)=C4C(C)C)c(O)c21	–	9.47 µM	4.25 µM	5.64 µM	5.24 µM	Non-Toxic	Non-Toxic	IC50 [5]: 2.96 µM; Ki [5]: 0.579 µM; IC50 [6]: 0.286 µM; Ki [6]: 0.09 µM
Cc1cc2c(c(O)c1-c1c(C)cc3c(c1O)/C(=C/NCc1ccc4c(c1)OCO4)C(=O)C(O)=C3C(C)C)/C(=C/NCc1ccc3c(c1)OCO3)C(=O)C(O)=C2C(C)C	–	29.2 µM	> 100 µM	> 100 µM	8.3 µM	–	–	–
Cc1cc2c(c(O)c1-c1c(C)cc3c(c1O)/C(=C/NCCCC(=O)O)C(=O)C(O)=C3C(C)C)/C(=C/NCCCC(=O)O)C(=O)C(O)=C2C(C)C	–	18.1 µM	28.8 µM	20 µM	32.3 µM	Non-Toxic	Non-Toxic	IC50 [5]: 0.661 µM; Ki [5]: 0.094 µM; IC50 [6]: 0.596 µM; Ki [6]: 0.235 µM
